In patent US11021444B2, “Antiviral compounds” (priority 2013, dated 2021) one finds IC50, CC50 and EC50 data, which are given here for 45 compounds.

Read-outs that look alike come from different tables or passages of the source.

The target in data set [1] is recombinant RSV complex (Human respiratory syncytial virus A, UniProt P28887). The data set can be described thus: RSV Polymerase Inhibition Assay. In kind it is biochemical. On the procedure: Standard RSV polymerase assays were conducted in the presence of 10 nM recombinant RSV complex in a reaction buffer containing Tris-HCl pH7.5, 6 mM MgCl2, and other additives and substrates including RNA oligonucleotides and radionucleotides. Standard reactions were incubated in 96-well plate format for 2 h at 30° C., in the presence of increasing concentration of inhibitor. The reaction was stopped with 90 μL of 0.1M EDTA, and the reaction product was transferred to a “reading” 96-well plate. After washing of the plate, radiolabeled RNA products were detected according to standard procedures with a Trilux Topcount scintillation counter.
Chain of recombinant RSV complex (P28887 whole entry): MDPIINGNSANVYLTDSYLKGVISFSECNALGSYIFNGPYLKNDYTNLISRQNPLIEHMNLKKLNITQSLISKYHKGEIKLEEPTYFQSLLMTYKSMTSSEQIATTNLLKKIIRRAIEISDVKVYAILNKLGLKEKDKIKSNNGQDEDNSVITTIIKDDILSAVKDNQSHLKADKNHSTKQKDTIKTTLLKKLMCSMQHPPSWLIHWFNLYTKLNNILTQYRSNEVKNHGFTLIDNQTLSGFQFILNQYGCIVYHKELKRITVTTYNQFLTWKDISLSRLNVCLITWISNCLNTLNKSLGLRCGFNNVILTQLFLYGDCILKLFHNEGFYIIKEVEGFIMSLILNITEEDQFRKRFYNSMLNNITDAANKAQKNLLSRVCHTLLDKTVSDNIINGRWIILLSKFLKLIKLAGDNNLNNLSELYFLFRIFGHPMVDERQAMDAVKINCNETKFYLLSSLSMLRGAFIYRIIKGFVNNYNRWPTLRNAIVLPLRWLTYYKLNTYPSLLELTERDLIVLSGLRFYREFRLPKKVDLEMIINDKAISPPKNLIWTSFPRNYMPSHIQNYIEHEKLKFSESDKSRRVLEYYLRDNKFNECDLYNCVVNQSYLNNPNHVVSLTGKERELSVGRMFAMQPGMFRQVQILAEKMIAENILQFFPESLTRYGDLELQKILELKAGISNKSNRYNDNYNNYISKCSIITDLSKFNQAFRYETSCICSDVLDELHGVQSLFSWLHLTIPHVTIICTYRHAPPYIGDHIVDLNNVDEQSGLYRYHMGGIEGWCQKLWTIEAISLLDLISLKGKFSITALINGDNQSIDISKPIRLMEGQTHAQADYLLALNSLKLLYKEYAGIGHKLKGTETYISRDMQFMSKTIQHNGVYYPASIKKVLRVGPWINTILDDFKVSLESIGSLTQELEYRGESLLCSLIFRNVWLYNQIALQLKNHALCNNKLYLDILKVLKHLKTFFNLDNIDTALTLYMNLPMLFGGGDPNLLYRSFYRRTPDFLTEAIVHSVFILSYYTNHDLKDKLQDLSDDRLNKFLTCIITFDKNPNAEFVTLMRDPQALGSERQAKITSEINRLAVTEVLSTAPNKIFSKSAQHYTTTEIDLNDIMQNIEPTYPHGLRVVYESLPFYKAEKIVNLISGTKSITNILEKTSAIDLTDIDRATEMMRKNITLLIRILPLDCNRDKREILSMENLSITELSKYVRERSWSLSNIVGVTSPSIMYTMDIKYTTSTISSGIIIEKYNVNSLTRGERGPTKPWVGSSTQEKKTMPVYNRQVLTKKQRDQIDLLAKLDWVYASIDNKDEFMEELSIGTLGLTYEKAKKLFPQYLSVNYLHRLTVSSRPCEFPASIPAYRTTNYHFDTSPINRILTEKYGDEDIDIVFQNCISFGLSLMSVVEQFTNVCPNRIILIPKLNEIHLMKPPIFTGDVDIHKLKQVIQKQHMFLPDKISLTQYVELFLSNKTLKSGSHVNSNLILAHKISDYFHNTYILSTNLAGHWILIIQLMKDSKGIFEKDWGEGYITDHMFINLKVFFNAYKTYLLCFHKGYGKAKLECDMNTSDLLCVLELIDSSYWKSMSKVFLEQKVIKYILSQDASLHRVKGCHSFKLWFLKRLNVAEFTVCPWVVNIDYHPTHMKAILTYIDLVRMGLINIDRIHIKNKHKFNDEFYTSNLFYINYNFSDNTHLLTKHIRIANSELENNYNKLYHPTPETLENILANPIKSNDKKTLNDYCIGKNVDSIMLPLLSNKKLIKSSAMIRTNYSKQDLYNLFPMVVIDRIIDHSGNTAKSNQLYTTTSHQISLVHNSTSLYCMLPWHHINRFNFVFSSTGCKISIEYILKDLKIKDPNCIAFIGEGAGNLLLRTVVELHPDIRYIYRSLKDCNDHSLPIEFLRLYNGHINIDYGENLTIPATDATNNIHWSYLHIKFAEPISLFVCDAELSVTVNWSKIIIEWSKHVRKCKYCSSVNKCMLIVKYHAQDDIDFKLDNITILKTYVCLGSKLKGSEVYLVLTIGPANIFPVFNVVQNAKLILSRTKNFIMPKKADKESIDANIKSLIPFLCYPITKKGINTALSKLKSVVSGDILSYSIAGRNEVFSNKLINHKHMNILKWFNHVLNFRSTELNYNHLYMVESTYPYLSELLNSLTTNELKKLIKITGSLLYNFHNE
Chain of recombinant RSV complex (P03421 whole entry, further chain): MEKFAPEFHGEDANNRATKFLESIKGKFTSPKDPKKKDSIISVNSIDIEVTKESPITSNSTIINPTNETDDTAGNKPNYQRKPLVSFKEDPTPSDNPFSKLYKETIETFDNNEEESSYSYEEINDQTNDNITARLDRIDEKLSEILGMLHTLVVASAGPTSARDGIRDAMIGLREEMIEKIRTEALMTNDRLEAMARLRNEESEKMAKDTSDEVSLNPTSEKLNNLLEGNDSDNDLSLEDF

Data set [2] is described as follows: Cytotoxicity Determination (CCK-8, without addition of virus). In kind it is cell-based. Conditions: human, 50% cytotoxicity concentration (CC50). On the procedure:
(§1) CPE reduction assays are performed as described by Sidwell and Huffman et al., Appl. Microbiol. (1971) 22(5):797-801 with slight modifications. HEp-2 cells (ATCC #, CCL-23) are seeded at a density of 1,500 cells/30 μl/well into the 384-well cell plate(s) (Corning #3701) one day prior to the assay. Compounds are added into 384-well cell plates by Labcyte POD 810 Plate Assembler system. Each of the test compounds is provided to duplicate wells of a 384-well cell plate at final concentrations starting from 100 μM or 1 μM using 1/3 stepwise dilutions for 9 points. Quick-thaw Respiratory Syncytial Virus (RSV) long strain (ATCC #VR-26) stock in a 37° C. water bath. Place on ice until ready to use. Viruses are diluted to the concentration of 100 TCID50/30 μL with medium and 30 μl diluted RSV are added into related wells of 384-well cell plates. For each plate, sixteen wells are set aside as uninfected, untreated cell controls (CC), and nine wells per test plate receive virus only as a control for virus replication (VC). The final DMSO concentration of all wells is 1%. Place the plates at 37° C., 5% CO2 for 5 days.
In order to determine the compound cytotoxicity, in parallel, each of the compounds is applied to duplicate wells in a 384-well cell plate at serial final concentrations starting from 100 μM using 1/2 stepwise dilutions for 7 points without addition of virus. Incubate the cells at 37° C., 5% CO2 for 5 days. Add 6 μL CCK-8 into each well and incubate in a CO2 incubator at 37° C. for 3-4 hours.

Data set [3] deals with Respiratory Syncytial Virus (RSV) long strain. The data set can be described thus: microbe, parasite or virus in culture. In kind it is cell-based. Conditions: human respiratory syncytial virus, Tables A and B list compounds by EC50 band. As to the method:
as §1
After 5 days incubation, observe the CPE of cells in all wells. […] Six μl of cell counting kit-8 reagent (CCK-8, Dojindo Molecular Technologies Inc., CK04-20) are added to each well, which allows colorimetric assays to determine the number of viable cells through the dehydrogenase activity detection. After 3-4 hour incubation, the absorbance of each well is measured with a spectrophotometric plate reader at 450 nm wavelength, using a 630 nm filter as background according to manufacturer's instruction.

Setting [4] is: HEp-2, 120 h, read-out: 50% effective concentration (EC50), HEp-2 cells infected with RSV long strain, 5 days, CCK-8 readout.

For orientation: IC50 means the point on the concentration scale where inhibition reaches its midpoint. In the case of `CC1(N)COc2c1cc(C(O)(CNC(=O)c1ccc(OC3CC3)c(CO)c1)C(F)(F)F)nc2-c1ccc(F)cc1` (centres unmarked) [Compound 481], the IC50 in data set [1] is below 1 µM.
On the same count and under the same terms, the figure for `COc1cc(C(=O)NCC(O)(c2ccc(OCCN(C)C)c(-c3ccc(F)cc3)n2)C(F)(F)F)ccc1OC1CC1` (centres unmarked) [Compound 480] is below 10 µM; for `COc1cc(C(=O)NCC(O)(Cn2ccnc2)c2cc3c(c(-c4ccc(F)c(Cl)c4)n2)OCC3(C)C)ccc1OCCO` (centres unmarked) [Compound 225] it is below 1 µM; for `COc1cc(C(=O)NCC(O)c2ccc(OC)c(-c3ccc(F)c(Cl)c3)n2)ccc1OC(F)F` (centres unmarked) [Compound 153] it is below 10 µM.
The term CC50 denotes the concentration at which the toxic effect on the cells reaches its halfway point. Read a high CC50 as lower toxicity to the cells. Compound `COc1cc(C(=O)NCC(O)(c2ccc(OC)c(-c3cnc(Cl)s3)n2)C(F)(F)F)ccc1OCCO` (centres unmarked) [Compound 468] came in with a CC50 at 5 days in data set [2] of 10 to 100 µM.
`COc1cc(C(=O)NCC(O)(c2ccc(OC)c(-c3ccc(F)c(Cl)c3)n2)C(F)(F)F)ccc1OC1CC1` (single isomer, unassigned) [Compound 247]: the CC50 at 5 days in data set [2] was above 100 µM. Also, the IC50 in data set [1] is below 10 µM.
In the case of `COc1cc(C(=O)NCC(O)(c2cc3c(c(-c4ccc(F)cc4)n2)OCC3(C)N)C(F)(F)F)ccc1OCS(N)(=O)=O` (centres unmarked) [Compound 648], in data set [1], the IC50 is below 1 µM.
On the same count and under the same terms, as for `COc1cc(C(=O)NCC(O)(c2ccc(OC)c(-c3ccc(F)c(Cl)c3)n2)C(F)(F)F)ccc1OC1CCN(C)C1=O` (centres unmarked) [Compound 350], the figure is below 10 µM; as for `COc1ccc(-c2cc(C(C)(C)N)cc(C(O)(CNC(=O)c3ccc(OCCO)c(OC)c3)C(F)(F)F)n2)cn1` (centres unmarked) [Compound 660], below 10 µM; as for `COc1cc(C(=O)NCC(O)(c2cc(C(C)(C)NC(=O)OCc3ccccc3)cc(-c3ccc(F)c(Cl)c3)n2)C(F)(F)F)ccc1OC1CC1` (centres unmarked) [Compound 399], below 1 µM.
For the compound `COc1cc(C(=O)NCC(O)(CN(CCN)CC(=O)O)c2ccc(OC)c(-c3ccc(F)c(Cl)c3)n2)ccc1OCCO` (centres unmarked) [Compound 183], in data set [2], the CC50 at 5 days was above 100 µM. Moreover, the IC50 in data set [1] is below 1 µM.
Regarding `COc1cc(C(=O)NCC(C)(O)c2nc(-c3ccc(F)c(Cl)c3)ccc2F)ccc1OCC(N)=O` (centres unmarked) [Compound 377], the IC50 in data set [1] was below 10 µM.
Consider `COc1cc(C(=O)NCC(O)(c2cc(CCN)cc(-c3ccc(F)c(Cl)c3)n2)C(F)(F)F)ccc1OC1CC1` (centres unmarked) [Compound 522], for which the IC50 in data set [1] is below 1 µM.
In data set [2], `COc1cc(C(=O)NCC(C)(O)c2csc(-c3ccc(F)c(Cl)c3)n2)ccc1OCCO` (centres unmarked) [Compound 441] yielded a CC50 at 5 days above 100 µM. Besides, the IC50 in data set [1] was below 100 µM.
`CC(C)(N)c1cc(-c2ccc(F)c(Cl)c2)nc(C(O)(CNC(=O)c2coc(Cl)n2)C(F)(F)F)c1` (centres unmarked) [Compound 478]: in data set [3] (setting [4]), the EC50 was 1 to 50 µM. Also, the concentration for half-maximal inhibition (IC50) in data set [1] was below 10 µM.
With `COc1cc(C(=O)NCC(O)(CN2CCCCC2)c2ccc(OC)c(-c3ccc(F)c(Cl)c3)n2)ccc1OCCO` (centres unmarked) [Compound 188], in data set [1], the IC50 is below 10 µM.
On the same count and under the same terms, as for `COc1cc(C(=O)NCC(C)(O)c2ccc(OC)c(-c3ccc(F)c(Cl)c3)n2)ccc1OCCN` (centres unmarked) [Compound 382], the figure is below 100 µM; as for `COc1cc(C(=O)NCC(O)(c2cc3c(c(-c4ccc(F)cc4)n2)OCC32CCCN2)C(F)(F)F)ccc1OCCO` (centres unmarked) [Compound 652], below 1 µM; as for `COc1cc(C(=O)NCC(O)(c2cc(C(C)(C)N)cc(-c3ccc(F)c(Cl)c3)n2)C(F)(F)F)ccc1OCC(=O)NS(C)(=O)=O` (centres unmarked) [Compound 618], below 1 µM.
`COc1cc(C(=O)NCC(O)(c2cc3c(c(-c4ccc(C)nc4)n2)OCC3(C)N)C(F)(F)F)ccc1OCCO` (centres unmarked) [Compound 671] came in with a CC50 at 5 days in data set [2] above 100 µM.
With `COc1cc(C(=O)NCC(O)(c2ccc(OC)c(C3COc4c(F)cccc43)n2)C2CC2)ccc1OCCO` (centres unmarked) [Compound 427], the 50% cytotoxic concentration (CC50) at 5 days in data set [2] is above 100 µM. Moreover, the IC50 in data set [1] was below 100 µM.
For the compound `COc1cc(C(=O)NCC(C)(O)c2nc(-c3ccc(F)c(Cl)c3)c(C)n2C)ccc1OCCF` (centres unmarked) [Compound 144], the IC50 in data set [1] was below 100 µM.
In the case of `COc1cc(C(=O)NCC(O)(c2cc(C(C)(C)N)cc(-c3ccc(F)cc3)n2)C(F)(F)F)ccc1OCC(F)(F)F` (centres unmarked) [Compound 573], the IC50 in data set [1] was below 1 µM.
With `CC(C)(N)c1cc(-c2ccc(F)c(Cl)c2)nc(C(O)(CNC(=O)c2cnc(Cl)s2)C(F)(F)F)c1` (centres unmarked) [Compound 276], the EC50 in data set [3] (setting [4]) lay in the range of 1 to 50 µM. In addition, the IC50 in data set [1] is below 1 µM.
For the compound `CCOc1ccc(C(=O)NCC(O)c2ccc(OC)c(-c3ccc(F)c(Cl)c3)n2)cc1OC` (centres unmarked) [Compound 154], in data set [1], the IC50 was below 10 µM.
Still for that read-out and setting: as for `COc1cc(C(=O)NCC(C)(O)c2ccc(OC)c(-c3ccc(F)c(Cl)c3)n2)ccc1OCC#N` (centres unmarked) [Compound 367], the figure is below 1 µM.
On to `CC(C)(N)c1cc(-c2ccc(F)c(Cl)c2)nc(C(O)(CNC(=O)c2ccc3c(c2)OCO3)C(F)(F)F)c1` (centres unmarked) [Compound 274], for which the EC50 in data set [3] (setting [4]) was below 1 µM. Moreover, the IC50 in data set [1] was below 1 µM.
Turning to `COc1cc(C(=O)NCC(O)(c2cc(CCCN)cc(-c3ccc(F)c(Cl)c3)n2)C(F)(F)F)ccc1OC1CC1` (centres unmarked) [Compound 591], the EC50 in data set [3] (setting [4]) was below 1 µM. Moreover, the IC50 in data set [1] is below 1 µM.
In data set [2], `COc1cc(C(=O)NCC(O)(c2cc(C(C)(C)N)cc(-c3ccc(C#N)cc3)n2)C(F)(F)F)ccc1OCC(N)=O` (centres unmarked) [Compound 625] yielded a 50% cytotoxic concentration (CC50) at 5 days above 100 µM. Moreover, the IC50 in data set [1] is below 1 µM.
As for `COc1cc(C(=O)NCC(O)(c2cc(C(C)(N)CF)cc(-c3ccc(F)cc3)n2)C(F)(F)F)ccc1OCCO` (centres unmarked) [Compound 676], the IC50 in data set [1] was below 1 µM.
`COc1cc(C(=O)NCC(C)(O)c2cccc(-c3ccc(F)c(Cl)c3)c2)ccc1OCCO` (centres unmarked) [Compound 439] had a CC50 at 5 days in data set [2] above 100 µM. Moreover, the IC50 in data set [1] was below 100 µM.
`COc1cc(C(=O)NCC(O)(c2cc(CNC(C)=O)cc(-c3ccc(F)cc3)n2)C(F)(F)F)ccc1OC1CC1` (centres unmarked) [Compound 329]: in data set [1], the concentration for half-maximal inhibition (IC50) was below 1 µM.
For `COc1cc(C(=O)NCC(O)(c2cc3c(c(-c4ccc(Cl)nc4)n2)OCC3(C)N)C(F)(F)F)ccc1OC1CC1` (centres unmarked) [Compound 668], in data set [1], the IC50 is below 1 µM.
Consider `COc1cc(C(=O)NCC(O)(c2ccc(OC)c(-c3ccc(F)c(Cl)c3)n2)C2CC2)ccc1OCc1ncnn1C` (centres unmarked) [Compound 352], for which the IC50 in data set [1] was below 10 µM.
`COc1cc(C(=O)NCC(C)(O)c2ccc(OC)c(-c3ccc(F)c(Cl)c3)n2)ccc1N1CCCC1=O` (centres unmarked) [Compound 151]: in data set [1], the IC50 is below 10 µM.
`COc1cc(C(=O)NCC(O)(c2cc3c(c(-c4ccc(F)c(Cl)c4)n2)OCC3(C)C)C(F)(F)F)ccc1OC1CCNC1=O` (centres unmarked) [Compound 203]: the IC50 in data set [1] is below 10 µM.
In data set [2], `COc1ccc(C(O)(CNC(=O)c2ccc3ncccc3c2OC)C(F)(F)F)nc1-c1ccc(F)c(Cl)c1` (centres unmarked) [Compound 269] gave a CC50 at 5 days of 10 to 100 µM.
`COc1cc(C(=O)NCC(O)(c2cc3c(c(-c4ccnc(C)c4)n2)OCC3(C)N)C(F)(F)F)ccc1OCCO` (centres unmarked) [Compound 670] yielded a CC50 at 5 days in data set [2] above 100 µM.
For `COc1cc(C(=O)NCC(O)(c2cc(C(C)(N)C(F)F)cc(-c3ccc(F)cc3)n2)C(F)(F)F)ccc1OCCO` (centres unmarked) [Compound 669], the IC50 in data set [1] is below 1 µM.
Consider `CC(C)(N)c1cc(-c2ccc(F)c(Cl)c2)nc(C(O)(CNC(=O)c2csc(Cl)n2)C(F)(F)F)c1` (centres unmarked) [Compound 280], for which the EC50 in data set [3] (120 h, read-out: 50% effective concentration (EC50), HEp-2 cells infected with RSV long strain, 5 days, CCK-8 readout) is 1 to 50 µM. In data set [1], the IC50 is below 1 µM.
Take `CNC(=O)COc1ccc(C(=O)NCC(O)(c2ccc(OC)c(-c3ccc(F)c(Cl)c3)n2)C(F)(F)F)cc1OC` (centres unmarked) [Compound 402]: in data set [1], the IC50 is below 1 µM.
In turn, `COc1cc(-c2csc3c(F)cccc23)nc(C(O)CNC(=O)c2cc(OC)c(OC)cc2O)c1` (centres unmarked) [Compound 110] returned a CC50 at 5 days in data set [2] of 10 to 100 µM.
For the compound `COc1cc(C(=O)NCC(O)(c2cc(C(C)(C)N)cc(-c3ccc(C(F)(F)F)cc3)n2)C(F)(F)F)ccc1OCCO` (centres unmarked) [Compound 658], the IC50 in data set [1] is below 1 µM.
On to `COc1cc(C(=O)NCC(O)(c2cc3c(c(-c4ccc(C(N)=O)cc4)n2)OCC3(C)N)C(F)(F)F)ccc1OCCO` (centres unmarked) [Compound 674], for which the CC50 at 5 days in data set [2] was above 100 µM.
`COc1cc(C(=O)NCC(C)(O)c2ccc(OC)c(-c3ccc(F)c(Cl)c3)n2)ccc1-c1cccnc1` (centres unmarked) [Compound 146]: in data set [1], the IC50 was below 10 µM.
